Measured values taken from US4450269A, “Mono-5-substituted-3-chloro-4H-1,2,6-thiadiazin-4-one antifungal agents” (FMC Corporation, priority 1980, dated 1984).
Like-named read-outs stand apart in the source and are kept apart here.

How the values were obtained:
Phytophthora infestans = format: cell-based; conditions: PI, 48 hours
Fusarium solani = experiment: Mycelial growth test; format: cell-based; conditions: for Percent Fungus Growth Inhibition / inhibition at 5 ppm / inhibition at 10 ppm / inhibition at 20 ppm: PS, 72 hours; for inhibition at 5 ppm / inhibition at 10 ppm / inhibition at 20 ppm / inhibition at 40 ppm: Fusarium solani, 72 h; for inhibition at 5 ppm / inhibition at 10 ppm / inhibition at 20 ppm: read-out: Percent Fungus Growth Inhibition; for inhibition at 40 ppm: read-out: Percent Fungus Growth Inhibition, PS, 40 ppm, 72 hours

Molecule | Spore Germination Rating (Phytophthora infestans; 1.0 ppm) | Spore Germination Rating (Phytophthora infestans; 2.5 ppm) | Spore Germination Rating (Phytophthora infestans; 10 ppm) | Spore Germination Rating (Phytophthora infestans; 40 ppm) | Percent Fungus Growth Inhibition (Fusarium solani; 5 ppm) [%] | Percent Fungus Growth Inhibition (Fusarium solani; 10 ppm) [%] | Percent Fungus Growth Inhibition (Fusarium solani; 20 ppm) [%] | Percent Fungus Growth Inhibition (Fusarium solani; 40 ppm) [%] | inhibition at 5 ppm (Fusarium solani; 5 ppm) [%] | inhibition at 10 ppm (Fusarium solani; 10 ppm) [%] | inhibition at 20 ppm (Fusarium solani; 20 ppm) [%] | inhibition at 40 ppm (Fusarium solani) [%]
3-chloro-5-(bromophenoxy)-4H-1,2,6-thiadiazin-4-one [Compound 33] | 0 (0-10) | 0 (0-10) | 0 (0-10) | 0 (0-10) | 3 | 33 | 53 | 93 | – | – | – | –
3-chloro-5-[methylaminocarbonyloxy)phenoxyl]-4H-1,2,6-thiadiazin-4-one [Compound 36] | 4 (80-100) | 4 (80-100) | 4 (80-100) | 0 (0-10) | 30 | 45 | 60 | 90 | – | – | – | –
O=c1c(Cl)nsnc1Oc1ccccc1 [Compound 2, 3-chloro-5-phenoxy-4H--1,2,6-thiadiazin-4-one] | 0 (0-10) | 1 (10-40) | 1 (10-40) | 0 (0-10) | – | – | – | – | 53 | 65 | 76 | 100
Cc1ccc(Oc2nsnc(Cl)c2=O)cc1 [Compound 3, 3-chloro-5-(4-methylphenoxy)-4H--1,2,6-thiadiazin-4-one] | 3 (60-80) | 2 (40-60) | 0 (0-10) | 0 (0-10) | – | – | – | – | 35 | 53 | 65 | 65
CC(C)(C)c1ccc(Oc2nsnc(Cl)c2=O)cc1 [Compound 4, 3-chloro-5-(4-tert-butylphnoxy)-4H--1,2,6-thiadiazin-4-one] | 4 (80-100) | 3 (60-80) | 0 (0-10) | 0 (0-10) | – | – | – | – | 0 | 0 | 0 | 8
COc1ccc(Oc2nsnc(Cl)c2=O)cc1 [Compound 5, 3-chloro-5-(4-methoxyphenoxy)4H--1,2,6-thiadiazin-4-one] | 2 (40-60) | 2 (40-60) | 2 (40-60) | 0 (0-10) | – | – | – | – | 18 | 35 | 6 | 71
CCCCOc1ccc(Oc2nsnc(Cl)c2=O)cc1 [Compound 6, 3-chloro-5-(4-n-butoxyphenoxy)-4H--1,2,6-thiadiazin-4-one] | 2 (40-60) | 0 (0-10) | 0 (0-10) | 0 (0-10) | – | – | – | – | 0 | 0 | 0 | 13
CCOC(=O)c1ccc(Oc2nsnc(Cl)c2=O)cc1 [Compound 7, 3-chloro-5-(4-ethoxycarbonylphenoxy)-4H--1,2,6-thiadiazin-4-one] | 0 (0-10) | 0 (0-10) | 0 (0-10) | 0 (0-10) | – | – | – | – | 42 | 54 | 69 | 88
CC(=O)Nc1ccc(Oc2nsnc(Cl)c2=O)cc1 [Compound 8, 5-(4-acetylaminophenoxy)-3-chloro-4H--1,2,6-thiadiazin-4-one] | 4 (80-100) | 4 (80-100) | 0 (0-10) | 0 (0-10) | – | – | – | – | 3 | 41 | 31 | 31
O=c1c(Cl)nsnc1Oc1ccc([N+](=O)[O-])cc1 [Compound 9, 3-chloro-5-(4-nitrophenoxy)-4H--1,2,6-thiadiazin-4-one] | 0 (0-10) | 0 (0-10) | 0 (0-10) | 0 (0-10) | – | – | – | – | 65 | 76 | 53 | 100
N#Cc1ccc(Oc2nsnc(Cl)c2=O)cc1 [Compound 10, 3-chloro-5-(4-cyanophenoxy)-4H--1,2,6-thiadiazin-4-one] | 0 (0-10) | 0 (0-10) | 0 (0-10) | 1 (10-40) | – | – | – | – | 17 | 33 | 50 | 75
O=c1c(Cl)nsnc1Oc1ccc(F)cc1 [Compound 11, 3-chloro-5-(4-fluorophenoxy)-4H--1,2,6-thiadiazin-4-one] | 4 (80-100) | 0 (0-10) | 0 (0-10) | 0 (0-10) | – | – | – | – | 17 | 33 | 83 | 75
O=c1c(Cl)nsnc1Oc1ccc(Cl)cc1 [Compound 12, 3-chloro-5-(4-chlorophenoxy)-4H--1,2,6-thiadiazin-4-one] | 1 (10-40) | 1 (10-40) | 1 (10-40) | 0 (0-10) | – | – | – | – | 71 | 59 | 65 | 100
O=c1c(Cl)nsnc1Oc1cccc(Cl)c1 [Compound 13, 3-chloro-5-(3-chlorophenoxy)-4H--1,2,6-thiadiazin-4-one] | 0 (0-10) | 0 (0-10) | 0 (0-10) | 0 (0-10) | – | – | – | – | 38 | 50 | 72 | 100
O=c1c(Cl)nsnc1Oc1ccccc1Cl [Compound 14, 3-chloro-5-(2-chlorophenoxy)-4H--1,2,6-thiadiazin-4-one] | 0 (0-10) | 0 (0-10) | 0 (0-10) | 0 (0-10) | – | – | – | – | 44 | 100 | 100 | 100
O=c1c(Cl)nsnc1Oc1ccc(Br)cc1 [Compound 15, 3-chloro-5-(4-bromophenoxy)-4H--1,2,6-thiadiazin-4-one] | 0 (0-10) | 1 (10-40) | 0 (0-10) | 0 (0-10) | – | – | – | – | 0 | 42 | 42 | 83
O=c1c(Cl)nsnc1Oc1ccc(Cl)c(Cl)c1 [Compound 16, 3-chloro-5-(3,4-dichlorophenoxy)-4H--1,2,6-thiadiazin-4-one] | 1 (10-40) | 0 (0-10) | 0 (0-10) | 0 (0-10) | – | – | – | – | 53 | 47 | 47 | 41
O=c1c(Cl)nsnc1Oc1ccc(Cl)cc1Cl [Compound 17, 3-chloro-5-(2,4-dichlorophenoxy)-4H--1,2,6-thiadiazin-4-one] | 3 (60-80) | 0 (0-10) | 0 (0-10) | 0 (0-10) | – | – | – | – | 50 | 75 | 100 | 100
O=c1c(Cl)nsnc1Oc1c(Cl)cccc1Cl [Compound 18, 3-chloro-5-(2,6-dichlorophenoxy)-4H--1,2,6-thiadiazin-4-one] | 3 (60-80) | 0 (0-10) | 0 (0-10) | 0 (0-10) | – | – | – | – | 41 | 50 | 75 | 75
O=c1c(Cl)nsnc1Oc1cccc(Cl)c1Cl [Compound 19, 3-chloro-5-(2,3-dichlorophenoxy)-4H--1,2,6-thiadiazin-4-one] | 3 (60-80) | 0 (0-10) | 0 (0-10) | 0 (0-10) | – | – | – | – | 50 | 66 | 81 | 100
O=c1c(Cl)nsnc1Oc1cc(Cl)cc(Cl)c1 [Compound 20, 3-chloro-5-(3,5-dichlorophenoxy)-4H--1,2,6-thiadiazin-4-one] | 0 (0-10) | 0 (0-10) | 0 (0-10) | 0 (0-10) | – | – | – | – | 59 | 66 | 100 | 69
Cc1cccc(Oc2nsnc(Cl)c2=O)c1 [Compound 21, 3-chloro-5-(3-methylphenoxy)-4H--1,2,6-thiadiazin-4-one] | 4 (80-100) | 1 (10-40) | 0 (0-10) | 0 (0-10) | – | – | – | – | 33 | 62 | 58 | 100
Cc1ccccc1Oc1nsnc(Cl)c1=O [Compound 22, 3-chloro-5-(2-methylphenoxy)-4H--1,2,6-thiadiazin-4-one] | 0 (0-10) | 0 (0-10) | 0 (0-10) | 0 (0-10) | – | – | – | – | 17 | 67 | 83 | 100
Cc1ccc(Oc2nsnc(Cl)c2=O)c(C)c1 [Compound 23, 3-chloro-5-(2,4-dimethylphenoxy)-4H--1,2,6-thiadiazin-4-one] | 4 (80-100) | 2 (40-60) | 2 (40-60) | 0 (0-10) | – | – | – | – | 17 | 33 | 100 | 100
Cc1cccc(C)c1Oc1nsnc(Cl)c1=O [Compound 24, 3-chloro-5-(2,6-dimethylphenoxy)-4H--1,2,6-thiadiazin-4-one] | 4 (80-100) | 2 (40-60) | 1 (10-40) | 0 (0-10) | – | – | – | – | 33 | 83 | 100 | 100
Cc1cc(C)cc(Oc2nsnc(Cl)c2=O)c1 [Compound 25, 3-chloro-5-(3,5-dimethylphenoxy)-4H--1,2,6-thiadiazin-4-one] | 4 (80-100) | 1 (10-40) | 0 (0-10) | 0 (0-10) | – | – | – | – | 50 | 100 | 100 | 100
